The text below walks through data of patent US7771978B2, “β1,4mannosyltransferases” (priority 2003, dated 2010).

Assay [1] has as its target T1, Egghead β1-4-mannosyltransferase (Drosophila melanogaster, UniProt O01346).
T1 construct: a secreted version of egghead was prepared as described for the full length construct; made in house; host or cells: baculovirus-infected Sf9 and High Five insect cells (microsomal fractions)
T1 sequence (O01346 1-457): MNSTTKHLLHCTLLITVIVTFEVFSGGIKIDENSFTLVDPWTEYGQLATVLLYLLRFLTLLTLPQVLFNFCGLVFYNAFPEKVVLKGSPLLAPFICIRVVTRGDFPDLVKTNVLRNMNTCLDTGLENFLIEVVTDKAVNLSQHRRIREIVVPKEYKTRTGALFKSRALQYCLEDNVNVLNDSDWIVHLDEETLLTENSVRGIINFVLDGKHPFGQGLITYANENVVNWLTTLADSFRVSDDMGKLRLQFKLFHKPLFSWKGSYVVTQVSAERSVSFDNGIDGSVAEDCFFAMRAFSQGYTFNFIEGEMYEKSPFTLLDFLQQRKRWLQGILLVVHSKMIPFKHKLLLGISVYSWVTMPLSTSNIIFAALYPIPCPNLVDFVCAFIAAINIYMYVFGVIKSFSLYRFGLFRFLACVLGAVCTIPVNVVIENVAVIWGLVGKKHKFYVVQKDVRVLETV
The experiment in a line: Egghead transfer of Man to glycosphingolipid acceptors (thin-layer chromatography/autoradiography). The format is biochemical. The following applies: GDP-Man donor; microsomal fraction; 4 h. As to the method: Microsomal fraction of egghead (Egh) and GalNAc-T4 (GT4) were incubated with Glcβ1-1Cer, LacCer, or no glycolipid and GDP-Man as described in Experimental Procedures. Autoradiography of thin-layer chromatography of reaction products (4 h). Plate was run in chloroform-methanol-water (60/38/10, v/v/v). Migration of standard glycolipids is indicated with arrows.
Glycosphingolipids of the fruit fly are based on the arthroseries GlcNAcβ1-3Manβ1-4Glcβ1-1 Cer core. […] Evidence in support hereof was provided by showing that brainiac utilizes the product formed by egghead (FIG. 5). This assay was carried out with n-octyl-β-Glc as initial acceptor substrate because it served as a better substrate than GlcCer under the assay conditions used.
An expression construct of the full coding region of egghead was prepared by RT-PCR using D. melanogaster mRNA and the sense primer Egh001 (5′-[…]-3′, SEQ ID NO: 4) with a BglII restriction site and the anti-sense primer Egh002 (5′-[…]-3′, SEQ ID NO: 5) with a XbaI restriction site. The resulting 1.1 Kb fragment was cloned into the BglII/XbaI sites of pVL1393 (PharMingen) and pVL1393-MYC. Furthermore an expression construct for a secreted version of egghead was prepared as described for the full length construct but using sense primer Egh003 (5′[…]-3′, SEQ ID NO: 6) with a BglII restriction site and the anti-sense primer Egh002. The resulting 1 Kb fragment was cloned into pAcGP67 Baculo-virus expression vector. Expression constructs pVL-egghead-full and pVL-egghead-Myc-full and pAcGP67-egghead-sol were co-transfected with Baculo-Gold™ DNA (Pharmingen) in Sf9 cells as described (12). […] Pellets were used at 10 mg/ml (Protein concentration determined by BCA, Pierce). Reaction products of soluble acceptors were quantified by chromatography on Dowex AG1-X8 (Sigma). Assays with glycosphingolipids included 5 mM 2-Acetamido-2-deoxy-D-Glucono-1,5-lactone (inhibitor of hexosaminidase activity), and products were purified on octadecyl-silica cartridges (Supelco) and analyzed by high performance thin-layer chromatography followed by autoradiography.

The target of assay [2] is T1, Egghead β1-4-mannosyltransferase. The assay can be described thus: Egghead mannosyltransferase enzyme assay with soluble acceptor and donor substrates (microsomal fractions). The format is biochemical. The following applies: microsomal membranes. The procedure:
Initial assays of activity included a screen with high concentrations of monosaccharide substrates and different donor substrates.
An expression construct of the full coding region of egghead was prepared by RT-PCR using D. melanogaster mRNA and the sense primer Egh001 (5′-[…]-3′, SEQ ID NO: 4) with a BglII restriction site and the anti-sense primer Egh002 (5′-[…]-3′, SEQ ID NO: 5) with a XbaI restriction site. The resulting 1.1 Kb fragment was cloned into the BglII/XbaI sites of pVL1393 (PharMingen) and pVL1393-MYC. Furthermore an expression construct for a secreted version of egghead was prepared as described for the full length construct but using sense primer Egh003 (5′[…]-3′, SEQ ID NO: 6) with a BglII restriction site and the anti-sense primer Egh002. The resulting 1 Kb fragment was cloned into pAcGP67 Baculo-virus expression vector. Expression constructs pVL-egghead-full and pVL-egghead-Myc-full and pAcGP67-egghead-sol were co-transfected with Baculo-Gold™ DNA (Pharmingen) in Sf9 cells as described (12). Control constructs included pVL-GalNAc-T4-full (8) and pVL-brainiac-full (7). Standard enzyme assays were performed in 50 μl reaction mixtures containing 25 mM HEPES-KOH (pH 7.4), 10 mM MgCl2, 0.1% n-octylgalactoside (Sigma), and 100 μM GDP-[^14C]-Man (2,000 cpm/nmol) (Amersham), and varying concentration of acceptor substrates (purchased from Fluka, Merck, Sigma and Toronto Research Chemicals Inc; see Table I for structures). Assays with brainiac were carried out in the same reaction mixture except for addition of UDP-[^14C]GlcNAc (3,000 cpm/nmol) (Amersham) and MnCl2. Enzyme sources were microsomal fractions of baculo-virus infected Sf9 and High Five™ cells prepared essentially as described by Weis et al. (1998). Briefly, cells were lysed in lysis buffer (25 mM Tris-HCl pH 7.4, 250 mM Sucrose), after incubation 30 min on ice cells were homogenized and lysate centrifuged at 1000×G. Glycerol were added to 20% and membrane pellets were obtained by 100.000×g. Pellets were used at 10 mg/ml (Protein concentration determined by BCA, Pierce). Reaction products of soluble acceptors were quantified by chromatography on Dowex AG1-X8 (Sigma). Assays with glycosphingolipids included 5 mM 2-Acetamido-2-deoxy-D-Glucono-1,5-lactone (inhibitor of hexosaminidase activity), and products were purified on octadecyl-silica cartridges (Supelco) and analyzed by high performance thin-layer chromatography followed by autoradiography.

Take Galβ1-1Cer: the “glycosphingolipid as acceptor substrate of egghead (in words)” value (from here on “glycosphingolipid as acceptor substrate”) in assay [1] is “not to serve as a substrate”.

With Galβ1-4Glcβ1-Cer [LacCer], the “glycosphingolipid as acceptor substrate” value in assay [1] was “does not serve as substrate”.

For Glcβ1-1Cer, the “glycosphingolipid as acceptor substrate” value in assay [1] is on record as “utilizes”.

B1: egghead: GDP-D-mannose: β-D-glucose-R 4-β-D-mannosyltransferase, SEQ ID NO. 1 (protein)
chain: T1 sequence (O01346 1-457)
modifications: Drosophila melanogaster
For B1, in assay [2], the “pH optimum of egghead activity” value is reported as 7-8 pH.
